Results: US8802597B2, “Herbicidal pyrimidines” (E I du Pont de Nemours and Company, priority 2003, dated 2014)
Where two headings read alike, the source gives them in different places.

Assays:
Type in all cases: in vivo
[1] = test system: Surinam grass (Brachiaria decumbens); test: Test B pre/postemergence; conditions: Urochloa decumbens; for pest or weed control at 125 g/ha: 125 g ai/ha; for pest or weed control at 62 g/ha: 62 g ai/ha
Method in brief: (§1)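 Plants treated pre- or postemergence were compared visually with controls after 13 to 15 days. Ratings ran from 0, no effect, to 100, complete control.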

[2] = test system: barnyardgrass (Echinochloa crus-galli); test: Test B pre/postemergence; conditions: Echinochloa crus-galli, scale 0 to 100 (0 no effect, 100 complete control); for pest or weed control at 62 g/ha: 62 g ai/ha; for pest or weed control at 125 g/ha: 125 g ai/ha
Method in brief: as §1

[3] = test system: cocklebur (Xanthium strumarium); test: Test B pre/postemergence; conditions: for pest or weed control at 125 g/ha: 125 g ai/ha
Method in brief: as §1

[4] = test system: corn (Zea mays); test: Test B pre/postemergence; conditions: Zea mays
Method in brief: as §1

[5] = test system: crabgrass (Digitaria sanguinalis); test: Test B pre/postemergence; conditions: Digitaria sanguinalis; for pest or weed control at 62 g/ha: 62 g ai/ha; for pest or weed control at 125 g/ha: 125 g ai/ha
Method in brief: as §1

[6] = test system: giant foxtail (Setaria faberii); test: Test B pre/postemergence; conditions: Setaria faberi; for pest or weed control at 125 g/ha: 125 g ai/ha; for pest or weed control at 62 g/ha: 62 g ai/ha
Method in brief: as §1

[7] = test system: lambsquarters (Chenopodium album); test: Test B pre/postemergence; conditions: Chenopodium album; for pest or weed control at 62 g/ha: 62 g ai/ha; for pest or weed control at 125 g/ha: 125 g ai/ha
Method in brief: as §1

[8] = test system: morningglory (Ipomoea coccinea); test: Test B pre/postemergence; conditions: Ipomoea; for pest or weed control at 62 g/ha: 62 g ai/ha; for pest or weed control at 125 g/ha: 125 g ai/ha
Method in brief: as §1

[9] = test system: pigweed (Amaranthus retroflexus); test: Test B pre/postemergence; conditions: Amaranthus retroflexus; for pest or weed control at 62 g/ha: 62 g ai/ha; for pest or weed control at 125 g/ha: 125 g ai/ha
Method in brief: as §1

[10] = test system: velvetleaf (Abutilon theophrasti); test: Test B pre/postemergence; conditions: Abutilon theophrasti; for pest or weed control at 62 g/ha: 62 g ai/ha; for pest or weed control at 125 g/ha: 125 g ai/ha
Method in brief: as §1

[11] = test system: wheat (Triticum aestivum); test: Test B pre/postemergence; conditions: Triticum aestivum, scale 0 to 100 (0 no effect, 100 complete control); for plant injury at 62 g/ha: 62 g ai/ha; for plant injury at 125 g/ha: 125 g ai/ha
Method in brief: as §1

[12] = test system: blackgrass (Alopecurus myosuroides); test: Test B postemergence; conditions: Alopecurus myosuroides, post-emergence, scale 0 to 100 (0 no effect, 100 complete control), read-out: Blackgrass plant response rating
Method in brief: as §1

[13] = test system: wild oat (Avena fatua); test: Test B postemergence; conditions: Avena fatua, post-emergence, scale 0 to 100 (0 no effect, 100 complete control), read-out: Oat, Wild plant response rating
Method in brief: as §1

[14] = test system: barnyardgrass (Echinochloa crus-galli); test: Test B flooded paddy test; conditions: Flood, scale 0 to 100
Method in brief: (§2)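 Plants were grown to the 2-leaf stage before treatment, then kept in a greenhouse for 13 to 15 days. Injury was rated visually against untreated controls on a 0 to 100 scale, where 0 is no effect and 100 is complete control.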

[15] = test system: duck salad (Heteranthera limosa); test: Test B flooded paddy test; conditions: Heteranthera limosa, Flood, scale 0 to 100, read-out: Plant response rating, Ducksalad
Method in brief: as §2

[16] = test system: rice (Oryza sativa); test: Test B flooded paddy test; conditions: Flood, scale 0 to 100
Method in brief: as §2

[17] = test system: umbrella sedge (Cyperus difformis); test: Test B flooded paddy test; conditions: Flood, scale 0 to 100
Method in brief: as §2

[18] = post-emergence, Postemergence, scale 0 to 100 (0 no effect, 100 complete control), read-out: Surinam Grass plant response rating
[19] = post-emergence, Postemergence, read-out: Barnyardgrass plant response rating
[20] = pre-emergence, Preemergence, read-out: Plant response rating, Barnyardgrass
[21] = post-emergence, Postemergence, scale 0 to 100 (0 no effect, 100 complete control), read-out: Crabgrass plant response rating
[22] = post-emergence, Postemergence, scale 0 to 100 (0 no effect, 100 complete control), read-out: Foxtail, Giant plant response rating
[23] = post-emergence, Postemergence, scale 0 to 100 (0 no effect, 100 complete control), read-out: Lambsquarters plant response rating
[24] = post-emergence, Postemergence, scale 0 to 100 (0 no effect, 100 complete control), read-out: Morningglory plant response rating
[25] = post-emergence, Postemergence, scale 0 to 100 (0 no effect, 100 complete control), read-out: Pigweed plant response rating
[26] = post-emergence, Postemergence, scale 0 to 100 (0 no effect, 100 complete control), read-out: Velvetleaf plant response rating
[27] = post-emergence, Postemergence, read-out: Wheat plant response rating
[28] = pre-emergence, Preemergence, read-out: Plant response rating, Wheat

Nc1nc(C2CC2)nc(C(=O)[O-])c1Cl.[Na+] [Compound 77, 6-amino-5-chloro-2-cyclopropyl-4-pyrimidinecarboxylic acid monosodium salt]
70: Cocklebur plant response rating ([3]; Postemergence, 62 g ai/ha, scale 0 to 100 (0 no effect, 100 complete control))
40%: pest or weed control at 125 g/ha ([15]; 125 g ai/ha)
80%: pest or weed control at 125 g/ha [1, 18] | pest or weed control at 62 g/ha ([3]; Xanthium strumarium, pre-emergence, Preemergence, 62 g ai/ha, scale 0 to 100, 0 no effect, 100 complete control, read-out: Plant response rating, Cocklebur) | plant injury at 125 g/ha ([4]; post-emergence, Postemergence, 125 g ai/ha, scale 0 to 100 (0 no effect, 100 complete control), read-out: Corn plant response rating) | Corn plant response rating (crop injury, 0 = no effect, 100 = complete kill) at 125 g/ha ([4]; pre-emergence, Preemergence, 125 g ai/ha, scale 0 to 100 (0 no effect, 100 complete control)) | pest or weed control at 125 g/ha [5, 21] | pest or weed control at 62 g/ha ([5]; pre-emergence, Preemergence, scale 0 to 100, 0 no effect, 100 complete control, read-out: Plant response rating, Crabgrass) | pest or weed control at 125 g/ha [6, 22] | pest or weed control at 62 g/ha [10, 26] | pest or weed control at 62 g/ha ([10]; pre-emergence, Preemergence, scale 0 to 100, 0 no effect, 100 complete control, read-out: Plant response rating, Velvetleaf) | pest or weed control at 500 g/ha ([15]; 500 g ai/ha)
40: Plant response rating, Sedge, Umbrella ([17]; 500 g ai/ha)
90%: pest or weed control at 125 g/ha ([1]; pre-emergence, Preemergence, scale 0 to 100 (0 no effect, 100 complete control), read-out: Plant response rating, Surinam Grass) | pest or weed control at 125 g/ha [2, 19] | pest or weed control at 125 g/ha [2, 20] | pest or weed control at 125 g/ha ([5]; pre-emergence, Preemergence, scale 0 to 100 (0 no effect, 100 complete control), read-out: Plant response rating, Crabgrass) | pest or weed control at 125 g/ha ([6]; pre-emergence, Preemergence, scale 0 to 100 (0 no effect, 100 complete control), read-out: Plant response rating, Foxtail, Giant) | pest or weed control at 62 g/ha [9, 25] | pest or weed control at 125 g/ha [10, 26]
70%: pest or weed control at 62 g/ha [1, 18] | pest or weed control at 62 g/ha [2, 20] | Corn plant response rating (crop injury, 0 = no effect, 100 = complete kill) at 62 g/ha ([4]; pre-emergence, Preemergence, 62 g ai/ha, scale 0 to 100, 0 no effect, 100 complete control) | pest or weed control at 62 g/ha [5, 21] | pest or weed control at 62 g/ha [6, 22] | pest or weed control at 62 g/ha ([6]; pre-emergence, Preemergence, scale 0 to 100, 0 no effect, 100 complete control, read-out: Plant response rating, Foxtail, Giant) | plant injury at 62 g/ha [11, 28] | plant injury at 125 g/ha [11, 28]
50%: plant injury at 62 g/ha [11, 27] | pest or weed control at 62 g/ha ([12]; 62 g ai/ha) | pest or weed control at 62 g/ha ([13]; 62 g ai/ha) | plant injury at 500 g/ha ([16]; Oryza sativa, 500 g ai/ha, read-out: Plant response rating, Rice)
100%: pest or weed control at 125 g/ha ([3]; Xanthium strumarium, post-emergence, Postemergence, scale 0 to 100 (0 no effect, 100 complete control), read-out: Cocklebur plant response rating) | pest or weed control at 125 g/ha ([3]; Xanthium strumarium, pre-emergence, Preemergence, scale 0 to 100 (0 no effect, 100 complete control), read-out: Plant response rating, Cocklebur) | pest or weed control at 62 g/ha [7, 23] | pest or weed control at 125 g/ha [7, 23] | pest or weed control at 62 g/ha ([7]; pre-emergence, Preemergence, scale 0 to 100, 0 no effect, 100 complete control, read-out: Plant response rating, Lambsquarters) | pest or weed control at 125 g/ha ([7]; pre-emergence, Preemergence, scale 0 to 100 (0 no effect, 100 complete control), read-out: Plant response rating, Lambsquarters) | pest or weed control at 62 g/ha [8, 24] | pest or weed control at 125 g/ha [8, 24] | pest or weed control at 62 g/ha ([8]; pre-emergence, Preemergence, scale 0 to 100, 0 no effect, 100 complete control, read-out: Plant response rating, Morningglory) | pest or weed control at 125 g/ha ([8]; pre-emergence, Preemergence, scale 0 to 100 (0 no effect, 100 complete control), read-out: Plant response rating, Morningglory) | pest or weed control at 125 g/ha [9, 25] | pest or weed control at 62 g/ha ([9]; pre-emergence, Preemergence, scale 0 to 100, 0 no effect, 100 complete control, read-out: Plant response rating, Pigweed) | pest or weed control at 125 g/ha ([9]; pre-emergence, Preemergence, scale 0 to 100 (0 no effect, 100 complete control), read-out: Plant response rating, Pigweed) | pest or weed control at 125 g/ha ([10]; pre-emergence, Preemergence, scale 0 to 100 (0 no effect, 100 complete control), read-out: Plant response rating, Velvetleaf)
0: Plant response rating, Barnyardgrass ([14]; 125 g ai/ha) | Plant response rating, Rice ([16]; 125 g ai/ha) | Plant response rating, Sedge, Umbrella ([17]; 125 g ai/ha)
30%: plant injury at 62 g/ha ([4]; post-emergence, Postemergence, 62 g ai/ha, scale 0 to 100 (0 no effect, 100 complete control), read-out: Corn plant response rating)
60%: pest or weed control at 62 g/ha ([1]; pre-emergence, Preemergence, scale 0 to 100, 0 no effect, 100 complete control, read-out: Plant response rating, Surinam Grass) | pest or weed control at 62 g/ha [2, 19] | plant injury at 125 g/ha [11, 27] | pest or weed control at 125 g/ha ([12]; 125 g ai/ha) | pest or weed control at 125 g/ha ([13]; 125 g ai/ha) | pest or weed control at 500 g/ha ([14]; Echinochloa crus-galli, 500 g ai/ha, read-out: Plant response rating, Barnyardgrass)
